Experimental data published in PubChem BioAssay AID1259411 (Chemical Carcinogenesis Research Information System (CCRIS), 2018).
The source made the active and inactive calls. No rule for the calls is given here.

Test system: rodent carcinogenicity bioassays, tumor incidence
Experiment: CCRIS carcinogenicity studies
Conditions: Dose: 0, Dose: 0
How it was run: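 Archive of carcinogenicity, mutagenicity, tumor promotion and tumor inhibition results drawn from journals, NCI reports and other sources, expert-reviewed; covers 1985-2011 and is no longer updated.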

Measured: carcinogen call

NCl
inactive: Species: MOUSE, Strain/Sex: B6C3F1/FEMALE, Route: ORAL, 50, 100, 200 PPM IN BUFFERED, CHARCOAL-FILTERED, DEIONIZED WATER FOR 104 WK (STUDY DURATION: 2 YR), 50, 100, 200 PPM IN BUFFERED, CHARCOAL-FILTERED, DEIONIZED WATER FOR 104 WK (STUDY DURATION: 2 YR) inactive; negative | Species: MOUSE, Strain/Sex: B6C3F1/MALE, Route: ORAL, 50, 100, 200 PPM IN BUFFERED, CHARCOAL-FILTERED, DEIONIZED WATER FOR 104 WK (STUDY DURATION: 2 YR), 50, 100, 200 PPM IN BUFFERED, CHARCOAL-FILTERED, DEIONIZED WATER FOR 104 WK (STUDY DURATION: 2 YR) inactive; negative | Species: RAT, Strain/Sex: F344/MALE, Route: ORAL, 50, 100, 200 PPM IN BUFFERED, CHARCOAL-FILTERED, DEIONIZED WATER FOR 103 WK (STUDY DURATION: 2 YR), 50, 100, 200 PPM IN BUFFERED, CHARCOAL-FILTERED, DEIONIZED WATER FOR 103 WK (STUDY DURATION: 2 YR) inactive; negative

CC[C@H]1OC(=O)[C@H](C)[C@@H](O[C@H]2C[C@@](C)(OC)[C@@H](O)[C@H](C)O2)[C@H](C)[C@@H](O[C@@H]2O[C@H](C)C[C@H](N(C)C)[C@H]2O)[C@](C)(O)C[C@@H](C)C(=O)[C@H](C)[C@@H](O)[C@]1(C)O
inactive: Species: MOUSE, Strain/Sex: B6C3F1/FEMALE, Route: ORAL, 2500, 5000 PPM IN FEED FOR 103 WK (STUDY DURATION: 104 WK), 2500, 5000 PPM IN FEED FOR 103 WK (STUDY DURATION: 104 WK) inactive; negative | Species: MOUSE, Strain/Sex: B6C3F1/MALE, Route: ORAL, 2500, 5000 PPM IN FEED FOR 103 WK (STUDY DURATION: 104 WK), 2500, 5000 PPM IN FEED FOR 103 WK (STUDY DURATION: 104 WK) inactive; negative | Species: RAT, Strain/Sex: F344/FEMALE, Route: ORAL, 5000, 10000 PPM IN FEED FOR 103 WK (STUDY DURATION: 104 WK), 5000, 10000 PPM IN FEED FOR 103 WK (STUDY DURATION: 104 WK) inactive; negative | Species: RAT, Strain/Sex: F344/MALE, Route: ORAL, 5000, 10000 PPM IN FEED FOR 103 WK (STUDY DURATION: 104 WK), 5000, 10000 PPM IN FEED FOR 103 WK (STUDY DURATION: 104 WK) inactive; negative

OC(Cn1cncn1)(c1ccc(F)cc1)c1ccccc1F (configuration not stated)
inactive: Species: Mouse, Strain/Sex: C57BL/10JfCD-1/Alpk (C57BL/10J)/Female (50/Group), Route: Oral, 10, 50, 200 ppm (0; 1.5; 7.5; 30 mg/kg/day) of 93% flutriafol in diet for 2 yr, study duration 2 yr, 10, 50, 200 ppm (0; 1.5; 7.5; 30 mg/kg/day) of 93% flutriafol in diet for 2 yr, study duration 2 yr inactive; negative | Species: Mouse, Strain/Sex: C57BL/10JfCD-1/Alpk (C57BL/10J)/Male (50/Group), Route: Oral, 10, 50, 200 ppm (0; 1.5; 7.5; 30 mg/kg/day) of 93% flutriafol in diet for 2 yr, study duration 2 yr, 10, 50, 200 ppm (0; 1.5; 7.5; 30 mg/kg/day) of 93% flutriafol in diet for 2 yr, study duration 2 yr inactive; negative | Species: Rat, Strain/Sex: Alpk:AP/Female (52/Group), Route: Oral, 20, 200, 2000 ppm (0; 1; 10; 100 mg/kg/day) of 93% flutriafol in diet for 104 wk, study duration 104 wk, 20, 200, 2000 ppm (0; 1; 10; 100 mg/kg/day) of 93% flutriafol in diet for 104 wk, study duration 104 wk inactive; negative | Species: Rat, Strain/Sex: Alpk:AP/Male (52/Group), Route: Oral, 20, 200, 2000 ppm (0; 1; 10; 100 mg/kg/day) of 93% flutriafol in diet for 104 wk, study duration 104 wk, 20, 200, 2000 ppm (0; 1; 10; 100 mg/kg/day) of 93% flutriafol in diet for 104 wk, study duration 104 wk inactive; negative

Cc1ccc2c(c1)[C@H](Nc1nc(N)nc(C(C)F)n1)[C@@H](C)C2 (some centres not stated)
inactive: Species: Mouse, Strain/Sex: C57BL/6J/Female (50/Group), Route: Oral, 8.4, 42, 168 mg/kg/day of 93.14% indaziflam in diet for 18 mo, study duration 18 mo, 8.4, 42, 168 mg/kg/day of 93.14% indaziflam in diet for 18 mo, study duration 18 mo inactive; negative | Species: Mouse, Strain/Sex: C57BL/6J/Male (50/Group), Route: Oral, 6.8, 34, 142 mg/kg/day of 93.14% indaziflam in diet for 18 mo, study duration 18 mo, 6.8, 34, 142 mg/kg/day of 93.14% indaziflam in diet for 18 mo, study duration 18 mo inactive; negative | Species: Rat, Strain/Sex: Wistar/Female (60/Group), Route: Oral, 17, 167, 661 (wks 0-40), 452 (overall) mg/kg/day of 93.14% indaziflam in diet for 2 yr, study duration 2 yr, 17, 167, 661 (wks 0-40), 452 (overall) mg/kg/day of 93.14% indaziflam in diet for 2 yr, study duration 2 yr inactive; negative | Species: Rat, Strain/Sex: Wistar/Male (60/Group), Route: Oral, 12, 118, 414 mg/kg/day of 93.14% indaziflam in diet for 2 yr, study duration 2 yr, 12, 118, 414 mg/kg/day of 93.14% indaziflam in diet for 2 yr, study duration 2 yr inactive; negative

CCCCCCCCCCCCCCN(C)N=O
active: Species: RAT, Strain/Sex: F344/MALE, Route: GAVAGE, 140 MG/ML IN CORN OIL 2/WK FOR 30 WK, STUDY DURATION: 110 WK, 140 MG/ML IN CORN OIL 2/WK FOR 30 WK, STUDY DURATION: 110 WK, Tumor Site: Type of Lesion: BLADDER active; positive

CC(=O)c1ccc(S(=O)(=O)NC(=O)NC2CCCCC2)cc1
inactive: Species: MOUSE, Strain/Sex: B6C3F1/FEMALE, Route: ORAL, 6359, 12718 PPM IN DIET, TWA, 6359, 12718 PPM IN DIET, TWA inactive; negative | Species: MOUSE, Strain/Sex: B6C3F1/MALE, Route: ORAL, 6359, 12718 PPM IN DIET, TWA, 6359, 12718 PPM IN DIET, TWA inactive; negative | Species: RAT, Strain/Sex: F344/FEMALE, Route: ORAL, 10000, 20000 PPM IN DIET, 10000, 20000 PPM IN DIET inactive; negative | Species: RAT, Strain/Sex: F344/MALE, Route: ORAL, 10000, 20000 PPM IN DIET, 10000, 20000 PPM IN DIET inactive; negative

S=C([S-])NCCNC(=S)[S-].[Zn+2]
inactive: Species: MOUSE, Strain/Sex: CD/FEMALE, Route: ORAL, 100, 300 PPM IN DIET FOR 89 WK (STUDY DURATION: 94 WK), 100, 300 PPM IN DIET FOR 89 WK (STUDY DURATION: 94 WK) inactive; negative | Species: MOUSE, Strain/Sex: CD/FEMALE, Route: ORAL, 1000 PPM IN DIET FOR 88 WK (STUDY DURATION: 88 WK) inactive; negative | Species: MOUSE, Strain/Sex: CD/MALE, Route: ORAL, 100, 300, 1000 PPM IN DIET FOR 95 WK (STUDY DURATION: 96 WK), 100, 300, 1000 PPM IN DIET FOR 95 WK (STUDY DURATION: 96 WK) inactive; negative | Species: RAT, Strain/Sex: CD/FEMALE, Route: ORAL, 5, 20, 80, 320 PPM IN DIET FOR 112 WK (STUDY DURATION: 112 WK), 5, 20, 80, 320 PPM IN DIET FOR 112 WK (STUDY DURATION: 112 WK) inactive; negative | Species: RAT, Strain/Sex: CD/MALE, Route: ORAL, 5, 20, 80, 320 PPM IN DIET FOR 119 WK (STUDY DURATION: 119 WK), 5, 20, 80, 320 PPM IN DIET FOR 119 WK (STUDY DURATION: 119 WK) inactive; negative

CCN(N=O)C(C)=O
active: Species: MOUSE, Strain/Sex: BALB/C/MALE, Route: ORAL, 1000, 2000 PPM IN DRINKING WATER FOR 2 WK (STUDY DURATION: 52 WK), 1000, 2000 PPM IN DRINKING WATER FOR 2 WK (STUDY DURATION: 52 WK), Tumor Site: Type of Lesion: LUNG: TUMOR active; positive
inactive: Species: RAT, Strain/Sex: WISTAR/MALE, Route: ORAL, 1000, 2000 PPM IN DRINKING WATER FOR 2 WK (STUDY DURATION: 52 WK), 1000, 2000 PPM IN DRINKING WATER FOR 2 WK (STUDY DURATION: 52 WK) inactive; negative
